The supplement of paper PMC11061612

Legend:
Carboplatin = compound: C1CC(C1)(C(=O)[O-])C(=O)[O-].N.N.[Pt+2] [Carboplatin]; details: max 10 µM
In short: (§1)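 Cancer cell lines were plated in 1536-well plates in 7.5 μl of DMEM/F12 or RPMI with 10% FBS and kept 24 hours at 37°C and 5% CO2 before 72 hours of dosing, with final DMSO typically 0.2%. CellTiter-Glo 2.0 luminescence measured viability, scaled between blank-well and DMSO-well means. Dose responses were fitted to a two-parameter logistic curve with a non-linear mixed effects model. This fit gives the single-agent IC50.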

AZD5363 = compound: C1CN(CCC1(C(=O)N[C@@H](CCO)C2=CC=C(C=C2)Cl)N)C3=NC=NC4=C3C=CN4 [AZD5363]; details: max 10 µM
In short: as §1

AZD1775 = compound: C=CCn1c(=O)c2cnc(Nc3ccc(N4CCN(C)CC4)cc3)nc2n1-c1cccc(C(C)(C)O)n1 [AZD1775]; details: max 3 µM
In short: as §1

Trametinib = compound: CC(=O)Nc1cccc(-n2c(=O)n(C3CC3)c(=O)c3c(Nc4ccc(I)cc4F)n(C)c(=O)c(C)c32)c1 [Trametinib]; details: max 1 µM
In short: as §1

Paclitaxel = compound: CC(=O)O[C@H]1C(=O)[C@@]2(C)[C@H]([C@H](OC(=O)c3ccccc3)[C@]3(O)C[C@H](OC(=O)[C@H](O)[C@@H](NC(=O)c4ccccc4)c4ccccc4)C(C)=C1C3(C)C)[C@]1(OC(C)=O)CO[C@@H]1C[C@@H]2O [Paclitaxel]; details: max 3 µM
In short: as §1

Palbociclib = compound: CC(=O)c1c(C)c2cnc(Nc3ccc(N4CCNCC4)cn3)nc2n(C2CCCC2)c1=O [Palbociclib]; details: max 10 µM
In short: as §1

AZD1390 = compound: CC(C)n1c(=O)n(C)c2cnc3cc(F)c(-c4ccc(OCCCN5CCCCC5)nc4)cc3c21 [AZD1390]; details: max 0.3 µM
In short: as §1

Venetoclax = compound: CC1(C)CCC(CN2CCN(c3ccc(C(=O)NS(=O)(=O)c4ccc(NCC5CCOCC5)c([N+](=O)[O-])c4)c(Oc4cnc5[nH]ccc5c4)c3)CC2)=C(c2ccc(Cl)cc2)C1 [Venetoclax]; details: max 1 µM
In short: as §1

Dasatinib = compound: CC1=C(C(=CC=C1)Cl)NC(=O)C2=CN=C(S2)NC3=CC(=NC(=N3)C)N4CCN(CC4)CCO [Dasatinib]; details: max 2 µM
In short: as §1

AZD2811 = compound: CCN(CCO)CCCOc1ccc2c(Nc3cc(CC(=O)Nc4cccc(F)c4)[nH]n3)ncnc2c1 [AZD2811]; details: max 1 µM
In short: as §1

SN-38 = compound: CCc1c2c(nc3ccc(O)cc13)-c1cc3c(c(=O)n1C2)COC(=O)[C@]3(O)CC [SN-38]; details: max 0.3 µM
In short: as §1

AZD0156 = compound: CN(C)CCCOc1ccc(-c2ccc3ncc4c(c3c2)n(C2CCOCC2)c(=O)n4C)cn1 [AZD0156]; details: max 3 µM
In short: as §1

AZD4320 = compound: CN(CC[C@H](CSC1=CC=CC=C1)NC2=C(C=C(C=C2)S(=O)(=O)NC(=O)C3=CC=C(C=C3)N4CCC(CC4)[C@H](C5=CC=CC=C5C6=CC=C(C=C6)Cl)O)S(=O)(=O)C(F)(F)F)CCO [AZD4320]; details: max 1 µM
In short: as §1

Etoposide = compound: COc1cc([C@@H]2c3cc4c(cc3[C@@H](O[C@@H]3O[C@@H]5CO[C@@H](C)O[C@H]5[C@H](O)[C@H]3O)[C@H]3COC(=O)[C@H]23)OCO4)cc(OC)c1O [Etoposide]; details: max 10 µM
In short: as §1

Gefitinib = compound: COc1cc2ncnc(Nc3ccc(F)c(Cl)c3)c2cc1OCCCN1CCOCC1 [Gefitinib]; details: max 10 µM
In short: as §1

AZD5153 = compound: COc1nnc2ccc(N3CCC(c4ccc(OCCN5CCN(C)C(=O)[C@H]5C)cc4)CC3)nn12 [AZD5153]; details: max 1 µM
In short: as §1

Lapatinib = compound: CS(=O)(=O)CCNCc1ccc(-c2ccc3ncnc(Nc4ccc(OCc5cccc(F)c5)c(Cl)c4)c3c2)o1 [Lapatinib]; details: max 10 µM
In short: as §1

AZD8186 = compound: C[C@@H](Nc1cc(F)cc(F)c1)c1cc(C(=O)N(C)C)cc2c(=O)cc(N3CCOCC3)oc12 [AZD8186]
In short: as §1

Crizotinib = compound: C[C@@H](Oc1cc(-c2cnn(C3CCNCC3)c2)cnc1N)c1c(Cl)ccc(F)c1Cl [Crizotinib]; details: max 10 µM
In short: as §1

Savolitinib = compound: C[C@@H](c1ccc2nccn2c1)n1nnc2ncc(-c3cnn(C)c3)nc21 [Savolitinib]; details: max 1 µM
In short: as §1

AZD6738 = compound: C[C@@H]1COCCN1C2=NC(=NC(=C2)C3(CC3)[S@](=N)(=O)C)C4=C5C=CNC5=NC=C4 [AZD6738]; details: max 10 µM
In short: as §1

AZD5991 = compound: Cc1c2c(nn1C)CSCc1cc(n(C)n1)CSc1cc(c3ccccc3c1)OCCCc1c(C(=O)O)n(C)c3c-2c(Cl)ccc13 [AZD5991]; details: max 1 µM
In short: as §1

AZD7648 = compound: Cc1cc2ncnn2cc1Nc1ncc2c(n1)n(C1CCOCC1)c(=O)n2C [AZD7648]; details: max 10 µM
In short: as §1

Taselisib = compound: Cc1nc(-c2cn3c(n2)-c2ccc(-c4cnn(C(C)(C)C(N)=O)c4)cc2OCC3)n(C(C)C)n1 [Taselisib]; details: max 10 µM
In short: as §1

Selumetinib = compound: Cn1cnc2c(F)c(Nc3ccc(Br)cc3Cl)c(C(=O)NOCCO)cc21 [Selumetinib]; details: max 10 µM
In short: as §1

SRA737 = compound: N#Cc1cnc(Nc2cc(NC[C@H]3CNCCO3)c(C(F)(F)F)cn2)cn1 [SRA737]; details: max 10 µM
In short: as §1

MK-2206 = compound: NC1(c2ccc(-c3nc4ccn5c(=O)[nH]nc5c4cc3-c3ccccc3)cc2)CCC1 [MK-2206]; details: max 10 µM
In short: as §1

Gemcitabine = compound: Nc1ccn([C@@H]2O[C@H](CO)[C@@H](O)C2(F)F)c(=O)n1 [Gemcitabine]; details: max 0.3 µM
In short: as §1

[1] = compound: O=C(Nc1ccc2[nH]nc(-c3ccncc3)c2c1)[C@@H]1CCN(CC(=O)N2CCN(c3ccc(-c4ncccn4)cc3)CC2)C1; details: max 5 µM
In short: as §1

Olaparib = compound: O=C(c1cc(Cc2n[nH]c(=O)c3ccccc23)ccc1F)N1CCN(C(=O)C2CC2)CC1 [Olaparib]; details: max 10 µM
In short: as §1

5-Fluorouracil = compound: O=c1[nH]cc(F)c(=O)[nH]1 [5-Fluorouracil]; details: max 20 µM
In short: as §1

Capivasertib = compound: C1CN(CCC1(C(=O)N[C@@H](CCO)C2=CC=C(C=C2)Cl)N)C3=NC=NC4=C3C=CN4 [Capivasertib]; details: max 10 µM
In short: as §1

SG3199 = compound: CC1=CN2[C@@H](C1)C=NC3=CC(=C(C=C3C2=O)OC)OCCCCCOC4=C(C=C5C(=C4)N=C[C@@H]6CC(=CN6C5=O)C)OC [SG3199]; details: max 0.001 µM
In short: as §1

Alisertib = compound: COc1cc(Nc2ncc3c(n2)-c2ccc(Cl)cc2C(c2c(F)cccc2OC)=NC3)ccc1C(=O)O [Alisertib]; details: max 10 µM
In short: as §1

Prexasertib = compound: COc1cccc(OCCCN)c1-c1cc(Nc2cnc(C#N)cn2)n[nH]1 [Prexasertib]; details: max 1 µM
In short: as §1

Doxorubicin = compound: COc1cccc2c1C(=O)c1c(O)c3c(c(O)c1C2=O)C[C@@](O)(C(=O)CO)C[C@@H]3O[C@H]1C[C@H](N)[C@H](O)[C@H](C)O1 [Doxorubicin]; details: max 1 µM
In short: as §1

Row | Cell Line | IC50, cell viability 72 h (Carboplatin) [nM] | IC50, cell viability 72 h (AZD5363) [nM] | IC50, cell viability 72 h (AZD1775) [nM] | IC50, cell viability 72 h (Trametinib) [nM] | IC50, cell viability 72 h (Paclitaxel) [nM] | IC50, cell viability 72 h (Palbociclib) [nM] | IC50, cell viability 72 h (AZD1390) [nM] | IC50, cell viability 72 h (Venetoclax) [nM] | IC50, cell viability 72 h (Dasatinib) [nM] | IC50, cell viability 72 h (AZD2811) [nM] | IC50, cell viability 72 h (SN-38) [nM] | IC50, cell viability 72 h (AZD0156) [nM] | IC50, cell viability 72 h (AZD4320) [nM] | IC50, cell viability 72 h (Etoposide) [nM] | IC50, cell viability 72 h (Gefitinib) [nM] | IC50, cell viability 72 h (AZD5153) [nM] | IC50, cell viability 72 h (Lapatinib) [nM] | IC50, cell viability 72 h (AZD8186; max 10 µM) [nM] | IC50, cell viability 72 h (Crizotinib) [nM] | IC50, cell viability 72 h (Savolitinib) [nM] | IC50, cell viability 72 h (AZD6738) [nM] | IC50, cell viability 72 h (AZD5991) [nM] | IC50, cell viability 72 h (AZD7648) [nM] | IC50, cell viability 72 h (Taselisib) [nM] | IC50, cell viability 72 h (Selumetinib) [nM] | IC50, cell viability 72 h (SRA737) [nM] | IC50, cell viability 72 h (MK-2206) [nM] | IC50, cell viability 72 h (Gemcitabine) [nM] | IC50, cell viability 72 h [1] [nM] | IC50, cell viability 72 h (Olaparib) [nM] | IC50, cell viability 72 h (5-Fluorouracil) [nM] | IC50, cell viability 72 h (Capivasertib) [nM] | IC50, cell viability 72 h (SG3199) [nM] | IC50, cell viability 72 h (Alisertib) [nM] | IC50, cell viability 72 h (Prexasertib) [nM] | IC50, cell viability 72 h (Doxorubicin) [nM] | IC50, cell viability 72 h (AZD8186; max 3 µM) [nM]
1 | NCI-H211 (Small Cell Lung Carcinoma) | > 10000 | 9900 | 628 | > 1000 | < 3 | 6130 | > 300 | 113 | > 2000 | 19.5 | 2.31 | > 3000 | 23.3 | 342 | > 10000 | 30.2 | 8540 | > 10000 | 1920 | > 1000 | 5990 | 307 | > 10000 | > 10000 | > 10000 | > 10000 | > 10000 | 8.72 | > 5000 | 3580 | > 20000 | – | – | – | – | – | –
2 | CFPAC-1 (Pancreatic Carcinoma) | – | – | 1440 | > 1000 | – | > 10000 | > 300 | > 1000 | > 2000 | > 1000 | 26.1 | > 3000 | > 1000 | – | > 10000 | > 1000 | > 10000 | – | > 10000 | > 1000 | > 10000 | > 1000 | > 10000 | 5770 | > 10000 | – | – | – | – | > 10000 | – | > 10000 | > 1 | > 10000 | 108 | > 1000 | > 3000
3 | RH-1 (Ewing's Sarcoma) | – | – | 95.1 | > 1000 | – | > 10000 | > 300 | > 1000 | > 2000 | 22.6 | 4.35 | > 3000 | 830 | – | > 10000 | > 1000 | > 10000 | – | 2250 | > 1000 | 2000 | 550 | > 10000 | 6260 | > 10000 | – | > 10000 | – | – | > 10000 | – | > 10000 | > 1 | 39 | 18.4 | 56.1 | > 3000
